Results from US20230407243A1, “GENETIC PLATFORM TO INVESTIGATE THE FUNCTIONS OF BACTERIAL DRUG EFFLUX PUMPS” (priority 2022, published 2023).
Read-outs that look alike come from different tables or passages of the source.

Assays:
Type in all cases: cell-based, Escherichia coli
EKO-35-Pore = assay: MIC susceptibility profiling, porinated strain; conditions: for MIC: Escherichia coli, technical duplicate; for Fold changes of MICs: EKO-35-Pore compared to EKO-35-Pore (reference)
Description: (§1) For genomic integration of the pore, the fhuA ΔC/Δ4L gene and the adjacent gentamicin resistance cassette were amplified using a high-fidelity polymerase and the fhuA_40_Up/gImS_3680_Low primers (Table 4). Integration of the pore gene was performed as described above. The pore gene was introduced into the intergenic region between the glmS and pstS genes, with gene expression under the control of a constitutive promoter (Kearse, M. et al., 2012). Genomic integrations were verified using PCR (Primers: pstS_520_Up/glmS_3680_Low, Table 4). Successful integrations were transformed with pCP20 to remove the gentamicin resistance cassette as previously described. Activity of the pore was confirmed through susceptibility testing with the large antibiotic vancomycin prior to phenotypic profiling and further susceptibility testing.
(§2) Single colonies were used to inoculate 3 mL of LB followed by incubation at 37° C. for 18 h with aeration at 220 rpm. The bacterial cells were harvested by centrifugation and resuspended in phosphate buffered saline (PBS) ([pH 7.4], 137 mM NaCl (Bioshop), 2.7 mM KCl (Bioshop), 10 mM Na2PO4 (Bioshop) and 1.8 mM K2PO4) to an OD600 nm˜1.0, followed by 1/2000 dilution into MHB II.
(§3) To a 384-well microtiter plate (Corning, untreated polystyrene), 500 nL of compound was dispensed, in duplicate, and serially titrated 2-fold using an Echo 550 acoustic liquid dispenser (Labcyte Inc.). […] As a solvent control, 500 nL of DMSO was applied to wells that contained no compound. Using a multichannel pipette, 50 μL of the prepared bacterial inoculum was applied to each well. To enable background correction post-incubation, the OD600 nm was measured (Biotek Synergy Neo2 microplate reader) prior to incubation. The plates were incubated at 37° C. with aeration at 900 rpm for 18 h. The plates were equilibrated to room temperature and the OD600 nm measured using a BioTek Synergy Neo2 microplate reader. Data was analyzed in both Prism (GraphPad, Version 9.2.0) and Microsoft Excel (Version 16.53). Raw data were input into Microsoft Excel and the pre-incubation OD600 nm measurements were subtracted from the post-incubation OD600 nm measurements. These corrected measurements were input into Prism 9 as a grouped analysis. […] All other MIC values were adjusted accordingly and visualized using the single-color scale grouped heat map function. Identification of compound chemical properties was achieved using DataWarrior (Version 5.5.0). Using PubChem, the SMILES chemical notation for each compound was obtained and compiled in Microsoft Excel. The resulting spreadsheet was input into DataWarrior and properties were calculated from the compound chemical structures.

EKO-35 araC::acrBD408A = assay: MIC susceptibility profiling, efflux platform; conditions: for MIC: Escherichia coli, Table 13B, non-porinated, technical duplicate, read-out: Minimum Inhibitory Concentration, EKO-35 araC::acrBD408A
Description: as §2, §3

EKO-35 araC::acrEF = assay: MIC susceptibility profiling, efflux platform; conditions: for MIC: Escherichia coli, Table 13A, non-porinated, technical duplicate, read-out: Minimum Inhibitory Concentration, EKO-35 araC::acrEF
Description: as §2, §3

EKO-35 araC::mdtBC = assay: MIC susceptibility profiling, efflux platform; conditions: for MIC: Escherichia coli, Table 13B, non-porinated, technical duplicate, read-out: Minimum Inhibitory Concentration, EKO-35 araC::mdtBC
Description: as §2, §3

E. coli EKO-35 = assay: microbe, parasite or virus in culture; conditions: for MIC: Escherichia coli, EKO35, technical duplicate; for Fold change of MICs: EKO-35 compared to EKO-35 (reference)
Description: as §2, §3

[1] = tested on: wild-type E. coli K-12 str. BW25113; assay: microbe, parasite or virus in culture; conditions: Escherichia coli, BW25113, technical duplicate
Description: as §2, §3

E. coli ΔtolC = assay: microbe, parasite or virus in culture; conditions: for MIC: Escherichia coli, 18 h, read-out: Minimum Inhibitory Concentration, ΔtolC; for Minimum inhibitory concentration (MIC), ΔtolC: Table 10, without pore, technical duplicate
Description: as §2, §3

EKO-35 araC::emrKY Pore = assay: MIC susceptibility profiling, porinated efflux platform; conditions: for MIC: Escherichia coli, EKO-35 araC::emrKY Pore, technical duplicate, read-out: Minimum inhibitory concentration
Description: as §1, §2, §3

EKO-35 araC::macAB Pore = assay: as above; conditions: for MIC: Escherichia coli, EKO-35 araC::macAB Pore, technical duplicate, read-out: Minimum inhibitory concentration
Description: as §1, §2, §3

[2] = tested on: EKO-35 araC::acrBD408A Pore; assay: as above; conditions: for MIC: Escherichia coli, EKO-35 araC::acrBD408A Pore, technical duplicate, read-out: Minimum inhibitory concentration
Description: as §1, §2, §3

EKO-35 araC::mdtBC Pore = assay: as above; conditions: for MIC: Escherichia coli, EKO-35 araC::mdtBC Pore, technical duplicate, read-out: Minimum inhibitory concentration
Description: as §1, §2, §3

EKO-35 araC::acrEF Pore = assay: as above; conditions: for MIC: Escherichia coli, Table 14A, porinated, technical duplicate, read-out: Minimum inhibitory concentration, EKO-35 araC::acrEF Pore
Description: as §1, §2, §3

EKO-35 araC::acrD Pore = assay: as above; conditions: for MIC: Escherichia coli, Table 14A, porinated, technical duplicate, read-out: Minimum inhibitory concentration, EKO-35 araC::acrD Pore
Description: as §1, §2, §3

EKO-35 araC::mdtEF Pore = assay: as above; conditions: for MIC: Escherichia coli, Table 14A, porinated, technical duplicate, read-out: Minimum inhibitory concentration, EKO-35 araC::mdtEF Pore
Description: as §1, §2, §3

EKO-35 araC::mexCD Pore = assay: as above; conditions: for MIC: Escherichia coli, EKO-35 araC::mexCD Pore, technical duplicate, read-out: Minimum inhibitory concentration
Description: as §1, §2, §3

EKO-35 araC::emrAB Pore = assay: as above; conditions: for MIC: Escherichia coli, EKO-35 araC::emrAB Pore, technical duplicate, read-out: Minimum inhibitory concentration
Description: as §1, §2, §3

ΔtolC-Pore = assay: microbe, parasite or virus in culture; conditions: for MIC: Escherichia coli, 18 h, read-out: Minimum inhibitory concentration, ΔtolC-Pore; for Minimum inhibitory concentration (MIC), Pore ΔtolC: Table 10, with pore, technical duplicate
Description: as §1, §2, §3

wild-type (WT) K-12-Pore = assay: microbe, parasite or virus in culture; conditions: Escherichia coli, technical duplicate
Description: as §1, §2, §3

EKO-35 araC::acrB Pore = assay: MIC susceptibility profiling, porinated efflux platform; conditions: Escherichia coli; Table 14A; porinated; technical duplicate; read-out: Minimum inhibitory concentration, EKO-35 araC::acrB Pore
Description: as §1, §2, §3

[3] = Table 10, with pore, read-out: Minimum inhibitory concentration (MIC), Pore EKO-35
[4] = Table 14A, porinated, read-out: Minimum inhibitory concentration, EKO-35-Pore
[5] = Table 10, without pore, read-out: Minimum inhibitory concentration (MIC), EKO-35
[6] = Table 13A, non-porinated, read-out: Minimum Inhibitory Concentration, EKO-35
[7] = Table 10, without pore, read-out: Minimum inhibitory concentration (MIC), K-12
[8] = Table 13A, non-porinated, read-out: Minimum Inhibitory Concentration, K-12
[9] = Table 10, with pore, read-out: Minimum inhibitory concentration (MIC), Pore K-12
[10] = Table 14A, porinated, read-out: Minimum inhibitory concentration, K-12 (WT)-Pore

| Structure (SMILES) | MIC (EKO-35-Pore; [3]) [µg/mL] | MIC (EKO-35-Pore; [4]) [µg/mL] | MIC (EKO-35 araC::acrBD408A) [µg/mL] | MIC (EKO-35 araC::acrEF) [µg/mL] | MIC (EKO-35 araC::mdtBC) [µg/mL] | MIC (E. coli EKO-35; [5]) [µg/mL] | MIC (E. coli EKO-35; [6]) [µg/mL] | MIC [1, 7] [µg/mL] | MIC [1, 8] [µg/mL] | MIC (E. coli ΔtolC) [µg/mL] | Minimum inhibitory concentration (MIC), ΔtolC (E. coli ΔtolC) [µg/mL] | MIC (EKO-35 araC::emrKY Pore) [µg/mL] | MIC (EKO-35 araC::macAB Pore) [µg/mL] | MIC [2] [µg/mL] | MIC (EKO-35 araC::acrEF Pore) [µg/mL] | MIC (EKO-35 araC::acrD Pore) [µg/mL] | MIC (EKO-35 araC::mdtEF Pore) [µg/mL] | MIC (EKO-35 araC::mexCD Pore) [µg/mL] | MIC (EKO-35 araC::emrAB Pore) [µg/mL] | MIC (ΔtolC-Pore) [µg/mL] | other results |
| --- | --- | --- | --- | --- | --- | --- | --- | --- | --- | --- | --- | --- | --- | --- | --- | --- | --- | --- | --- | --- | --- |
| CC[C@H]1OC(=O)[C@H](C)[C@@H](O[C@H]2C[C@@](C)(OC)[C@@H](O)[C@H](C)O2)[C@H](C)[C@@H](O[C@@H]2O[C@H](C)C[C@H](N(C)C)[C@H]2O)[C@](C)(O)C[C@@H](C)C(=O)[C@H](C)[C@@H](O)[C@]1(C)O [erythromycin] | 0.195 | 0.195 | 3.12 | 50 | 3.12 | 3.12 | 3.12 | 100 | 100 | 3.12 | 3.125 | 0.195 | 0.781 | 0.098 | 1.56 | 0.195 | 1.56 | 1.56 | 0.195 | 0.195 | MIC (EKO-35 araC::mdtBC Pore): 0.195 µg/mL; Minimum inhibitory concentration (MIC), Pore ΔtolC (ΔtolC-Pore): 0.195 µg/mL; MIC (wild-type (WT) K-12-Pore; [9]): 6.25 µg/mL; MIC (wild-type (WT) K-12-Pore; [10]): 6.25 µg/mL |
| COc1cccc2c1C(=O)c1c(O)c3c(c(O)c1C2=O)C[C@@](O)(C(C)=O)C[C@@H]3O[C@H]1C[C@H](N)[C@H](O)[C@H](C)O1 [daunorubicin] | 0.781 | 0.781 | 3.12 | 200 | 1.56 | 3.12 | 3.12 | 200 | 200 | 1.56 | 1.563 | 0.781 | 1.56 | 0.781 | 25 | 1.56 | 50 | 12.5 | 1.56 | 0.781 | Fold changes of MICs (EKO-35-Pore): 1 fold; Fold change of MICs (EKO-35 araC::acrBD408A; EKO-35 araC::acrBD408A compared to EKO-35): 1 fold; Fold change of MICs (EKO-35 araC::acrEF; EKO-35 araC::acrEF compared to EKO-35): 64 fold; Fold change of MICs (EKO-35 araC::mdtBC; EKO-35 araC::mdtBC compared to EKO-35): 1 fold; Fold change of MICs (E. coli EKO-35): 1 fold; Fold changes of MICs (EKO-35 araC::emrKY Pore; EKO-35 araC::emrKY Pore compared to EKO-35-Pore): 1 fold; Fold changes of MICs (EKO-35 araC::macAB Pore; EKO-35 araC::macAB Pore compared to EKO-35-Pore): 2 fold; Fold changes of MICs ([2]; EKO-35 araC::acrBD408A Pore compared to EKO-35-Pore): 1 fold; Fold changes of MICs (EKO-35 araC::mdtBC Pore; EKO-35 araC::mdtBC Pore compared to EKO-35-Pore): 4 fold; MIC (EKO-35 araC::mdtBC Pore): 3.12 µg/mL; efflux pump-mediated resistance vs EKO-35-Pore (EKO-35 araC::mdtBC Pore; MdtBC with the pore): associated with resistance; Fold changes of MICs (EKO-35 araC::acrEF Pore; EKO-35 araC::acrEF Pore compared to EKO-35-Pore): 32 fold; Fold changes of MICs (EKO-35 araC::acrD Pore; EKO-35 araC::acrD Pore compared to EKO-35-Pore): 2 fold; Fold changes of MICs (EKO-35 araC::mdtEF Pore; EKO-35 araC::mdtEF Pore compared to EKO-35-Pore): 64 fold; Fold changes of MICs (EKO-35 araC::mexCD Pore; EKO-35 araC::mexCD Pore compared to EKO-35-Pore): 16 fold; Fold changes of MICs (EKO-35 araC::emrAB Pore; EKO-35 araC::emrAB Pore compared to EKO-35-Pore): 2 fold; Minimum inhibitory concentration (MIC), Pore ΔtolC (ΔtolC-Pore): 0.781 µg/mL; MIC (wild-type (WT) K-12-Pore; [9]): 100 µg/mL; MIC (wild-type (WT) K-12-Pore; [10]): 100 µg/mL |
| CO[C@H]1/C=C/O[C@@]2(C)Oc3c(C)c(O)c4c(O)c(c(/C=N/N5CCN(C)CC5)c(O)c4c3C2=O)NC(=O)/C(C)=C\C=C\[C@H](C)[C@H](O)[C@@H](C)[C@@H](O)[C@@H](C)[C@H](OC(C)=O)[C@@H]1C [rifampicin] | 0.391 | 0.391 | 3.12 | 6.25 | 6.25 | 6.25 | 6.25 | 12.5 | 12.5 | 6.25 | 6.25 | 0.391 | 0.391 | 0.195 | 0.391 | 0.391 | 0.391 | 0.391 | 0.195 | 0.391 | Fold changes of MICs (EKO-35-Pore): 1 fold; Fold change of MICs (E. coli EKO-35): 1 fold; MIC (EKO-35 araC::acrB Pore): 1.56 µg/mL; Minimum inhibitory concentration (MIC), Pore ΔtolC (ΔtolC-Pore): 0.391 µg/mL; MIC (wild-type (WT) K-12-Pore; [9]): 0.781 µg/mL; MIC (wild-type (WT) K-12-Pore; [10]): 0.781 µg/mL |
